How the values were obtained:
[1] = molecular target: T1, human 5-HT1A receptors (Homo sapiens, UniProt P08908); assay: displacement of [3H] 8-OH-DPAT from the 5-HT1A serotonin receptor; format: binding; details: CHO cells stably transfected with human 5-HT1A receptors
T1 construct: expressed in transfected cells; host or cells: CHO cells
T1 sequence (P08908 1-422): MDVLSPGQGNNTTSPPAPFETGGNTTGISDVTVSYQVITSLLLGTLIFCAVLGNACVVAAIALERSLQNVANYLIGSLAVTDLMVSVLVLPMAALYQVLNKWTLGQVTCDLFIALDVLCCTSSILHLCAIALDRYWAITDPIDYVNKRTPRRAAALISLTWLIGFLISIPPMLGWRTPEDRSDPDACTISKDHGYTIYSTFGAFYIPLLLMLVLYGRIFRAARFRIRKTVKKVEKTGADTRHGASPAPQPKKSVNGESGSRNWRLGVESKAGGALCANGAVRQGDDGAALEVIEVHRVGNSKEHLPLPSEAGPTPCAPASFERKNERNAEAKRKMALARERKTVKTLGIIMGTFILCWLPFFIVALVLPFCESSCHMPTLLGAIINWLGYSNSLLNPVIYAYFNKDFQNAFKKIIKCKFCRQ

[2] = molecular target: 5-HT transporter (Rattus norvegicus, UniProt P31652); assay: Rat Brain 3H-Paroxetine Binding Assay (RB 5HT Transporter); details: rat frontal cortical membranes; 3H-paroxetine 0.1 nM, 60 min, 25° C.
Sequence of 5-HT transporter (P31652 whole entry): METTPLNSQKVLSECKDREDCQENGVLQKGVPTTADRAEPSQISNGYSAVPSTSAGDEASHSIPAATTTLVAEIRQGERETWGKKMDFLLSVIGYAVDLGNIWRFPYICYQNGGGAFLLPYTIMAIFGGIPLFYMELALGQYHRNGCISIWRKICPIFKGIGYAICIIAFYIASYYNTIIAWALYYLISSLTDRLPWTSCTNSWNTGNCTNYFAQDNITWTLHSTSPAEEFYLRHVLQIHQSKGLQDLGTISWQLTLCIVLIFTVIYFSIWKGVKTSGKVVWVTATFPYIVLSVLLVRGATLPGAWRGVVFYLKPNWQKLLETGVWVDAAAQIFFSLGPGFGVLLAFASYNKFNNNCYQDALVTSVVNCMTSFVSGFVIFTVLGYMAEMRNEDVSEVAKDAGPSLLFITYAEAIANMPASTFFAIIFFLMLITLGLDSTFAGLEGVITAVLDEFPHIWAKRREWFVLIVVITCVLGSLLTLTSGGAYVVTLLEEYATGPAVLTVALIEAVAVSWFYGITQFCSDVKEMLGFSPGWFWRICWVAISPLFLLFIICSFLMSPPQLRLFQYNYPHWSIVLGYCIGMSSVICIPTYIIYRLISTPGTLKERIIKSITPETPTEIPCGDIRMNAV
Excerpt: Rat Brain ^3H-Paroxetine Binding Assay (RB 5HT Transporter):
This assay was used to determine a compound's affinity of the 5-HT transporter.
All reactions were terminated by the addition of ice cold Tris buffer followed by rapid filtration using a Tom Tech filtration device to separate bound from free ^3H-paroxetine.

Row | Compound | Ki [1] [nM] | Ki [2] [nM]
1 | COc1ccc2occ([C@H]3CC[C@H](N4CCN(c5ccc(Cl)c6cccnc56)CC4)CC3)c2c1 [Compound 66, 5-chloro-8-{4-[4-trans(5-methoxy-1-benzofuran-3-yl)cyclohexyl]piperazin-1-yl}quinoline] | 1.99 | 89
2 | Fc1cc(N2CCN(CCc3coc4ccccc34)CC2)c2ncccc2c1 [Compound 1, 8-{4-[2-(1-benzofuran-3-yl)ethyl]-1-piperazinyl}-6-fluoroquinoline] | – | 6.5
3 | COc1cccc2c(CC(C)N3CCN(c4cccc5cccnc45)CC3)coc12 (stereo not drawn) [Compound 35, 8-{4-[2-(7-methoxy-1-benzofuran-3-yl)-1-methylethyl)piperazin-1-yl]quinoline] | 1.22 | –
4 | Clc1cc(N2CCN(CCc3coc4ccccc34)CC2)c2ncccc2c1 [Compound 2, 8-{4-[2-(1-benzofuran-3-yl)ethyl]-1-piperazinyl}-6-chloroquinoline] | 124 | 176
5 | Clc1ccc2c(CCN3CCN(c4cccc5cccnc45)CC3)coc2c1 [Compound 5, 8-{4-[2-(6-chloro-1-benzofuran-3-yl)ethyl]-1-piperazinyl}-quinoline] | 0.73 | 31
6 | Fc1ccc2occ(CCN3CCN(c4cccc5cccnc45)CC3)c2c1 [Compound 15, 8-{4-[2-(5-fluoro-1-benzofuran-3-yl)ethyl]-1-piperazinyl}-quinoline] | 0.37 | 17
7 | COc1ccc2occ(CCN3CCN(c4cc(C)cc5cccnc45)CC3)c2c1 [Compound 23, 8-{4-[2-(5-methoxy-1-benzofuran-3-yl)ethyl]-1-piperazinyl}-6-methyl-quinoline] | 20 | 28.5
8 | Clc1cc(N2CCN(CCc3coc4cc(Cl)ccc34)CC2)c2ncccc2c1 [Compound 7, 8-{4-[2-(6-chloro-1-benzofuran-3-yl)ethyl]-1-piperazinyl}-6-chloro-quinoline] | 15.4 | –
9 | COc1cccc2c(CCN3CCN(c4cc(Cl)cc5cccnc45)CC3)coc12 [Compound 20, 8-{4-[2-(7-methoxy-1-benzofuran-3-yl)ethyl]-1-piperazinyl}-6-chloro-quinoline] | 0.14 | 3.79
10 | Fc1cc(N2CCN(CCc3coc4ccc(F)cc34)CC2)c2ncccc2c1 [Compound 17, 8-{4-[2-(5-fluoro-1-benzofuran-3-yl)ethyl]-1-piperazinyl}-6-fluoro-quinoline] | 1.59 | 16.5
11 | Cc1cc(N2CCN(CCc3coc4ccccc34)CC2)c2ncccc2c1 [Compound 3, 8-{4-[2-(1-benzofuran-3-yl)ethyl]-1-piperazinyl}-6-methylquinoline] | 1.93 | 14
12 | COc1cccc2c(C(C)CN3CCN(c4cccc5cccnc45)CC3)coc12 (stereo not drawn) [Compound 31, 8-{4-[2-(7-methoxy-1-benzofuran-3-yl)propyl]-1-piperazinyl}quinoline] | 0.91 | 4.17
13 | COc1cccc2c(CCN3CCN(c4cccc5cccnc45)CC3)coc12 [Compound 18, 8-{4-[2-(7-methoxy-1-benzofuran-3-yl)ethyl]-1-piperazinyl}-quinoline] | 0.11 | 0.65
14 | COc1ccc2c(CCN3CCN(c4cc(C)cc5cccnc45)CC3)coc2c1 [Compound 10, 8-{4-[2-(6-methoxy-1-benzofuran-3-yl)ethyl]-1-piperazinyl}-6-methyl-quinoline] | 0.94 | 97
15 | COc1cccc2c1occ2[C@H]1CC[C@H](N2CCN(c3ccc(Cl)c4cccnc34)CC2)CC1 [Compound 64, 5-chloro-8-{4-[4-trans(7-methoxy-1-benzofuran-3-yl)cyclohexyl]piperazin-1-yl}quinoline] | 18.7 | 49
16 | Fc1cc(N2CCN(CCc3coc4cc(Cl)ccc34)CC2)c2ncccc2c1 [Compound 6, 8-{4-[2-(6-chloro-1-benzofuran-3-yl)ethyl]-1-piperazinyl}-6-fluoro-quinoline] | 16.1 | 471
17 | COc1ccc2occ(CC(C)N3CCN(c4cccc5cccnc45)CC3)c2c1 (stereo not drawn) [Compound 38, 8-{4-[2-(5-methoxy-1-benzofuran-3-yl)-1-methylethyl)piperazin-1-yl]quinoline] | 0.14 | –

More lines, now with the values ahead:

Row | Ki [1] [nM] | Ki [2] [nM] | Compound
18 | 1.72 | – | Fc1cc(N2CCN([C@H]3CC[C@@H](c4csc5ccc(F)cc54)CC3)CC2)c2ncccc2c1 [Compound 47, 6-fluoro-8-{4-[4-cis(5-fluoro-1-benzothien-3-yl)cyclohexyl]piperazin-1-yl}quinoline]
19 | 79.1 | 93 | Cc1cc(N2CCN(CC(C)c3coc4ccccc34)CC2)c2ncccc2c1 (stereo not drawn) [Compound 30, 8-{4-[2-(1-benzofuran-3-yl)propyl]-1-piperazinyl}-6-methyl-quinoline]
20 | 19.3 | 32 | CC(CN1CCN(c2cccc3cccnc23)CC1)c1coc2ccccc12 (stereo not drawn) [Compound 27, 8-{4-[2-(1-benzofuran-3-yl)propyl]-1-piperazinyl}quinoline]
21 | 0.92 | 87 | COc1cccc2c1occ2[C@H]1CC[C@@H](N2CCN(c3ccc(Cl)c4cccnc34)CC2)CC1 [Compound 63, 5-chloro-8-{4-[4-cis(7-methoxy-1-benzofuran-3-yl)cyclohexyl]piperazin-1-yl}quinoline]
22 | 36.7 | 403 | Cc1cc(N2CCN(CCc3coc4cc(Cl)ccc34)CC2)c2ncccc2c1 [Compound 8, 8-{4-[2-(6-chloro-1-benzofuran-3-yl)ethyl]-1-piperazinyl}-6-methyl-quinoline]
23 | 1.77 | 130 | COc1ccc2occ(CC(C)N3CCN(c4cc(C)cc5cccnc45)CC3)c2c1 (stereo not drawn) [Compound 40, 6-methyl-8-{4-[2-(5-methoxy-1-benzofuran-3-yl)-1-methylethyl)piperazin-1-yl]quinoline]
24 | 8.05 | 62 | COc1cc(N2CCN(CCc3coc4ccc(F)cc34)CC2)c2ncccc2c1 [Compound 16, 8-{4-[2-(5-fluoro-1-benzofuran-3-yl)ethyl]-1-piperazinyl}-6-methoxy-quinoline]
25 | 1.37 | 92 | COc1cc(N2CCN([C@H]3CC[C@@H](c4csc5ccc(F)cc54)CC3)CC2)c2ncccc2c1 [Compound 49, 6-methoxy-8-{4-[4-cis(5-fluoro-1-benzothien-3-yl)cyclohexyl]piperazin-1-yl}quinoline]
26 | 8.71 | 47 | COc1cc(N2CCN(CCc3coc4ccc(OC)cc34)CC2)c2ncccc2c1 [Compound 25, 8-{4-[2-(5-methoxy-1-benzofuran-3-yl)ethyl]-1-piperazinyl}-6-methoxy-quinoline]
27 | 112 | 68 | CC(CN1CCN(c2cc(F)cc3cccnc23)CC1)c1coc2ccccc12 (stereo not drawn) [Compound 29, 8-{4-[2-(1-benzofuran-3-yl)propyl]-1-piperazinyl}-6-fluoro-quinoline]
28 | 2.16 | 35 | COc1cccc2c(C(C)CN3CCN(c4cc(C)cc5cccnc45)CC3)coc12 (stereo not drawn) [Compound 32, 8-{4-[2-(7-methoxy-1-benzofuran-3-yl)propyl]-1-piperazinyl}-6-methyl-quinoline]
29 | 2.92 | 11 | Clc1ccc2occ(CCN3CCN(c4cccc5cccnc45)CC3)c2c1 [Compound 12, 8-{4-[2-(5-chloro-1-benzofuran-3-yl)ethyl]-1-piperazinyl}-quinoline]
30 | 21.1 | 34 | COc1cccc2c1occ2[C@H]1CC[C@H](N2CCN(c3ccc(F)c4cccnc34)CC2)CC1 [Compound 58, 5-fluoro-8-{4-[4-trans(7-methoxy-1-benzofuran-3-yl)cyclohexyl]-1-piperazinyl}quinoline]
31 | 9.13 | 35 | COc1cccc2c(C(C)CN3CCN(c4cc(C)cc5cccnc45)CC3)coc12 (stereo not drawn) [Compound 34, 8-{4-[2-(7-methoxy-1-benzofuran-3-yl)propyl]-1-piperazinyl}-6-methyl-quinoline]
32 | 0.11 | 116 | Fc1cc(N2CCN([C@H]3CC[C@@H](c4coc5ccccc54)CC3)CC2)c2ncccc2c1 [Compound 55, 8-{4-[4-cis(1-benzofuran-3-yl)cyclohexyl]-1-piperazinyl}-6-fluoroquinoline]
33 | 8.19 | 58 | COc1cccc2c(C(C)CN3CCN(c4cc(Cl)cc5cccnc45)CC3)coc12 (stereo not drawn) [Compound 33, 8-{4-[2-(7-methoxy-1-benzofuran-3-yl)propyl]-1-piperazinyl}-6-chloro-quinoline]
34 | 0.81 | 37 | COc1ccc2c(CCN3CCN(c4cc(Cl)cc5cccnc45)CC3)coc2c1 [Compound 11, 8-{4-[2-(6-methoxy-1-benzofuran-3-yl)ethyl]-1-piperazinyl}-6-chloro-quinoline]
35 | 13.5 | 45 | Cc1cc(N2CCN(CCc3coc4ccc(Cl)cc34)CC2)c2ncccc2c1 [Compound 14, 8-{4-[2-(5-chloro-1-benzofuran-3-yl)ethyl]-1-piperazinyl}-6-methyl-quinoline]
36 | – | 471 | COc1cccc2c(CC(C)N3CCN(c4cc(C)cc5cccnc45)CC3)coc12 (stereo not drawn) [Compound 37, 6-methyl-8-{4-[2-(7-methoxy-1-benzofuran-3-yl)-1-methylethyl)piperazin-1-yl]quinoline]

From patent publication US7276603B2, “Benzofuranyl-and benzothienyl-piperazinyl quinolines and methods of their use” (Wyeth, priority 2003, dated 2007)
